Converted amounts (≈) assume the structure as drawn. Where a name gives a salt, the structure may show the parent alone. Read-outs that look alike come from different tables or passages of the source.
Key:
Streptococcus Group A = experiment: MIC, broth dilution (Examples I/II); type: cell-based, beta-hemolytic streptococci Group A; conditions: group A Streptococci
Experimental: (§1) In order to establish comparative bactericidal and fungicidal results with homologous fatty acids, a series of experiments was performed with thirty straight-chain fatty acids and derivatives thereof. Eight different gram-negative and twelve different gram-positive organisms, representing a very broad spectrum of organisms, were used in these experiments including the fungus Candida (a yeast). Additionally, fatty acids were chosen to show the effects of saturation versus unsaturation, in the fatty acid claim. Standard solutions of the fatty acids and their derivatives were prepared by first dissolving the weighed compounds in 1 to 2 ml of 95% ethanol and immediately pouring this solution into 200 ml of Tripticase Soy Broth. These lipid compounds which are insoluble in water and broth precipitated into very small crystals or droplets. The tubes containing the suspension were warmed to approximately 70° C and were then placed in an ultrasonic tank for further solubilization of the lipid derivatives.
(§2) Standard solutions (or suspensions) at 1,000 μg/ml were twofold serially diluted with additional broth to a concentration of 125 μg/ml. A 4-ml amount of each dilution was then quickly, and with constant agitation, dispensed into appropriately labeled screw-capped glass tubes (16 by 125 mm). The tubes were sterilized with steam at 15 psi for 15 minutes. After sterilization, all tubes were cooled and incubated overnight at 35° C to insure sterility.
(§3) All compounds were compared on a molar (micromoles/milliliter) rather than on a mass basis. In the following lists of organisms used, those followed by a parenthetical number are registered with the American Type Culture Collection (ATCC); the remainder were isolates from Providence Hospital or Northland Laboratory.
(§4) One drop (0.04 ± 0.01 ml) of an 18-hr broth culture containing 10^7 and 10^9 organisms/ml was added to each dilution of the test compound, as well as to a tube of plain broth which served as the positive control. After inoculation, the contents of each tube were well mixed, and the tubes were incubated at 35° C in a 5% carbon dioxide + […] atmosphere.
(§5) The MIC is defined as the lowest concentration of compound at which no […] evidence of growth was observed when turbidity of the inoculated broth dilutions was compared with control tubes. […] Only a one-tube difference between the bactericidal and bacteriostatic concentrations was normally observed.
(§6) Standard solutions (1000 μg/ml) of three fatty acids and polyglycerol esters thereof were prepared as described in Example I. Also sucrose esters were prepared by transferring the weighed compounds (0.2 gm. dissolved in 1 ml absolute methanol) into 200 ml of sterile Trypticase Soy Broth (TSB). These standard solutions (1000 μg/ml) were twofold serially diluted with additional sterile broth to a concentration of 125 μg/ml. A 3.8 aliquot of each dilution was asceptically delivered into sterile screw-capped culture tubes. All tubes were incubated overnight at 36° C to insure sterility. The microorganisms used in this example were the same as those used in Example I.
The inoculum, 0.05 ml of an 13-24 hour TSB culture (approximately 10^9 organisms/ml) was asceptically delivered into all dilutions of the compounds, mixed well, and incubated at 36° C. A tube of inoculated broth without the compound served as a positive control and an uninoculated set of dilutions incubated along with the test dilutions, served as a negative control.
In those cases in which the test compound itself caused turbidity, an aliquot (0.015 ml) of the mixed broth was inoculated onto an agar plate and incubated at 36° C for examination, as described in Example I. The control procedure of Example I was also repeated. The lauric, capric, and oleic acids were used as internal controls and for comparison to Example I. The minimal inhibitory concentrations (μmole/ml) for the compounds studied are given in Tables 7 and 8.

[1] = test system: nine gram-positive organisms and the yeast/fungus Candida; experiment: MIC, broth dilution, over all organisms (Examples I/II); type: cell-based; conditions: for Inhibition in words: saturated acids, Table 1; for Activity in words: at the concentration tested
Experimental: as §1, §2, §3
Staphylococcus aureus, S. epidermidis, beta-hemolytic streptococci (Group A and non-group A), group D streptococcus, Bacillus subtilis (6051), Sarcina lutea (9431), Micrococcus sp., Candida albicans, Nocardia asteroids (3308), Corynebacterium sp. (10700), and pneumococcus (63001).
as §4, §5
Table 5 presents a comparison of the C10 and C12 free acids and their glyceryl derivatives, and Table 6 gives the corresponding ranges of activity.
as §6
The inoculum, 0.05 ml of an 13-24 hour TSB culture (approximately 10^9 organisms/ml) was asceptically delivered into all dilutions of the compounds, mixed well, and incubated at 36° C. […]

Corynebacterium sp. = experiment: MIC on mass basis (Example V procedure); type: cell-based
Experimental: (§7) The essential procedure of Example I was followed with a series of phenolic compounds, with the exception that the test method was conducted on a mass (μg/ml) basis rather than a molecular (mol/ml) basis of the foregoing tests, since the long established phenol-coeffecient test is on a mass rather than molecular basis. Additionally, a different but closely related group of organisms were used in this test, in order to give a complete representative span on gram-negative, gram-positive and fungus organisms. Additionally, the phenolic derivatives chosen for test purposes include a number of derivatives which are presently accepted by the FDA as food-grade phenolic microbicides.

[2] = test system: Streptococcus faecalis (Group D); experiment: MIC on mass basis (Example V procedure); type: cell-based; conditions: Enterococcus faecalis, read-out: MIC
Experimental: as §7

Streptococcus pyogenes = experiment: MIC on mass basis (Example V procedure); type: cell-based
Experimental: as §7

Saccharomyces cerevisiae = experiment: MIC on mass basis (Example V procedure); type: cell-based; conditions: Saccharomyces cerevisiae, read-out: MIC
Experimental: as §7
(§8) The same procedure of Example V was repeated but with combinations of mono-laurin (GML).
(§9) The procedure of Example V was repeated with combinations of glycerol mono-laurin (GML) and ethylenediamine tetraacetic acid (EDTA) as the calcium salt and in combination with BHA.

Candida albicans = experiment: MIC on mass basis (Example V procedure); type: cell-based; conditions: Candida albicans, read-out: MIC
Experimental: as §7, §8, §9

Pseudomonas aeruginosa = experiment: MIC on mass basis (Example V procedure); type: cell-based; conditions: Pseudomonas aeruginosa, read-out: MIC
Experimental: as §7, §8, §9

Escherichia coli = experiment: MIC on mass basis (Example V procedure); type: cell-based; conditions: Escherichia coli, read-out: MIC
Experimental: as §7, §8, §9

Staphylococcus aureus = experiment: MIC on mass basis (Example V procedure); type: cell-based; conditions: Staphylococcus aureus, read-out: MIC
Experimental: as §7, §8, §9

Nocardia asteroides = experiment: MIC on mass basis (Example V procedure); type: cell-based
Experimental: as §7, §8, §9

[3] = Table 6, range over the organisms of Table 5, NI = no inhibition
[4] = Table 2, range over the organisms of Table 1, read-out: MIC range
[5] = Table 12, Corynebacterium sp., read-out: MIC
[6] = Table 12, Streptococcus faecalis (Group D)
[7] = Table 12, Streptococcus pyogenes, read-out: MIC
[8] = Table 12, Saccharomyces cerevisiae
[9] = Table 12, Pseudomonas aeruginosa
[10] = Table 12, Staphylococcus aureus
[11] = Table 12, Nocardia asteroides, read-out: MIC
[12] = Table 4, range over the organisms of Table 3, read-out: MIC range

CCCCCCCCCCCC(=O)O [Lauric acid, lauric acid]
MIC (Streptococcus Group A; Bio Gel and Florisil used): > 990 µM | MIC (Streptococcus Group A; filtered (laurate crystals removed)): 1000 µM (≈ 200 µg/mL) | MIC (Streptococcus Group A; non-filtered broth): 125 µM (≈ 25 µg/mL) | Effect of albumin on MIC ([1]; Albumin (0.1%) added): had no effect on the determination of the MIC | MIC range ([1]; Table 4, range over the organisms of Table 3): 0.062 to 2.49 µmol/mL | MIC range [1, 3]: 0.062 - 2.49 μ/Mol/ml | MIC ([1]; read-out: MIC range): 62 to 2490 µM (≈ 12.4 to 499 µg/mL) | Inhibition in words [1]: clearly the more active saturated acid

CCCCCCCCCC(=O)O [Capric acid, capric acid]
MIC [1, 4]: 1450 to 5800 µM (≈ 250 to 999 µg/mL) | MIC range [1, 3]: 1.45 - 5.8 μ/Mol/ml

CCCCCCCCCCCCN [Dodecylamine HCl]
MIC ([1]; read-out: MIC range): 28 to 112 µM

CCCCCC(=O)O [Caproic, caproic acid]
Inhibition in words [1]: not inhibitory at all

Triglycerol oleate
MIC ([1]; Table 7, one entry across all (oleic acid: all other than Grp. A) organisms, NO INHIBITION, max. tested listed): > 1980 µM | Activity in words [1]: no activity at the concentration tested

CCCCCCCCc1cc(C(C)(C)C)c(O)c(C(C)(C)C)c1 [C8, 2,6-di-tert-4-octylphenol]
MIC (Corynebacterium sp.; [5]): 5000 µg/mL (≈ 15.7 mM) | MIC [2, 6]: > 5000 µg/mL | MIC (Streptococcus pyogenes; [7]): > 5000 µg/mL | MIC (Saccharomyces cerevisiae; [8]): > 5000 µg/mL | MIC (Candida albicans; Table 12, Candida albicans): > 5000 µg/mL | MIC (Pseudomonas aeruginosa; [9]): > 5000 µg/mL | MIC (Escherichia coli; Table 12, Eschericia coli): > 5000 µg/mL | MIC (Staphylococcus aureus; [10]): > 5000 µg/mL | MIC (Nocardia asteroides; [11]): 5000 µg/mL

CCCCCCCCCCCC(=O)N(C)C [Lauryl N,N-dimethylamide]
MIC [1, 12]: 54 to 109 µM (≈ 12.3 to 24.8 µg/mL)

Cc1cc(C(C)(C)C)c(O)c(C(C)(C)C)c1 [BHT, 2,6-di-tert-butyl-4-methylphenol]
MIC (Corynebacterium sp.; [5]): 100 µg/mL (≈ 0.454 mM) | MIC (Corynebacterium sp.; Table 16, Corynebacterium sp., no unit in table): 100 | MIC [2, 6]: > 5000 µg/mL | MIC ([2]; Table 16, Streptococcus faecalis (Group D), no unit in table): > 1000 µg/mL | MIC (Streptococcus pyogenes; [7]): 1000 µg/mL (≈ 4.54 mM) | MIC (Streptococcus pyogenes; Table 16, Streptococcus pyogenes, no unit in table): 1,000 | MIC (Saccharomyces cerevisiae; [8]): > 5000 µg/mL | MIC (Saccharomyces cerevisiae; Table 16, Saccharomyces cerevisiae, no unit in table): > 1000 µg/mL | MIC (Candida albicans; Table 12, Candida albicans): > 5000 µg/mL | MIC (Candida albicans; Table 16, Candida albicans, no unit in table): > 1000 µg/mL | MIC (Pseudomonas aeruginosa; [9]): > 5000 µg/mL | MIC (Pseudomonas aeruginosa; Table 16, Pseudomonas aeruginosa, no unit in table): > 1000 µg/mL | MIC (Escherichia coli; Table 12, Eschericia coli): > 5000 µg/mL | MIC (Escherichia coli; Table 16, Escherichia coli, no unit in table (Example 5 procedure, mass basis)): > 1000 µg/mL | MIC (Staphylococcus aureus; [10]): > 5000 µg/mL | MIC (Staphylococcus aureus; Table 16, Staphylococcus aureus, no unit in table): > 1000 µg/mL | MIC (Nocardia asteroides; [11]): 1000 µg/mL | MIC (Nocardia asteroides; Table 16, Nocardia asteroides, no unit in table): 1,000

CCCC/C=C\CCCCCCCC(=O)O [Myristoleic]
MIC [1, 4]: 55 to 552 µM (≈ 12.4 to 125 µg/mL)

CCc1cc(C(C)(C)C)c(O)c(C(C)(C)C)c1 [C2, 2,6-di-tert-butyl-4-ethylphenol]
MIC (Corynebacterium sp.; [5]): 1000 µg/mL (≈ 4.27 mM) | MIC [2, 6]: 2500 µg/mL (≈ 10.7 mM) | MIC (Streptococcus pyogenes; [7]): 1000 µg/mL (≈ 4.27 mM) | MIC (Saccharomyces cerevisiae; [8]): > 5000 µg/mL | MIC (Candida albicans; Table 12, Candida albicans): > 5000 µg/mL | MIC (Pseudomonas aeruginosa; [9]): > 5000 µg/mL | MIC (Escherichia coli; Table 12, Eschericia coli): > 5000 µg/mL | MIC (Staphylococcus aureus; [10]): 5000 µg/mL | MIC (Nocardia asteroides; [11]): 500 µg/mL

CCCCCCCCCCCCCC(=O)O [Myristic]
MIC ([1]; read-out: MIC range): 218 to 4370 µM (≈ 49.8 to 998 µg/mL)

CCCCCCCCCCCCCCCCCC(=O)O [Stearic, stearic acid]
Inhibition in words [1]: not inhibitory at all

CCCCc1cc(C(C)(C)C)c(O)c(C(C)(C)C)c1 [C4, 2,6-di-tert-4-butylphenol]
MIC (Corynebacterium sp.; [5]): 1000 µg/mL (≈ 3.81 mM) | MIC [2, 6]: > 5000 µg/mL | MIC (Streptococcus pyogenes; [7]): 5000 µg/mL (≈ 19.1 mM) | MIC (Saccharomyces cerevisiae; [8]): > 5000 µg/mL | MIC (Candida albicans; Table 12, Candida albicans): > 5000 µg/mL | MIC (Pseudomonas aeruginosa; [9]): > 5000 µg/mL | MIC (Escherichia coli; Table 12, Eschericia coli): > 5000 µg/mL | MIC (Staphylococcus aureus; [10]): > 5000 µg/mL | MIC (Nocardia asteroides; [11]): 500 µg/mL

CCCCCC/C=C\CCCCCCCC(=O)O [Palmitoleic]
MIC [1, 4]: 24 to 983 µM (≈ 6.11 to 250 µg/mL)

CCCCCCCCCCCCO [Lauryl alcohol]
MIC [1, 12]: 67 to 5400 µM (≈ 12.5 to 1010 µg/mL)

CCCCCCCCCC(=O)OCC(O)CO (stereo not shown) [1-mono-caprin]
MIC ([1]; Table 6, range over the organisms of Table 5, NI = no inhibition, read-out: MIC range): 100 to 2000 µM (≈ 24.6 to 493 µg/mL)

CCCCCCCC/C=C\CCCCCCCC(=O)O [Oleic acid]
Activity in words [1]: very limited activity
